{"source": "patent US5882881A", "about": "“Inhibition of cyst formation by cytoskeletal specific drugs” (priority 1998, dated 1999)", "key": {"Murine CPK Cells [1]": {"system": "Murine CPK Cells", "test": "In vitro cyst formation and cyst size in suspension culture of murine CPK cells", "type": "cell-based, mouse", "details": "for Cyst Size: mean ± SD of twenty cysts, concentrations as in Table II, control 71 ± 22; for cyst formation (in words): murine CPK cells, 24 h suspension culture, ouabain 0.5 mM, also 1 mM, b155 taxol 25 μM, colchicine 10 μM, vinblastine 1 μM, cytochalasins 10 μM, model species not given", "protocol": "At 10, 21 and 28 days after birth, mice having congenital polycystic kidney disease (CPK) and their phenotypically normal littermates were sacrificed by cervical dislocation. Kidneys were harvested aseptically and washed with DMEM/F12 (Sigma Chemical Co., St. Louis, Mo.) in a 1:1 mix. Each decapsulated kidney was chopped into cubes (1 mm) and incubated in 5 ml of collagenase solution composed of 1 mg/ml collagenase type IV (Worthington Biochemical Corporation, Freehold, N.J.), 1 mg/ml egg white trypsin inhibitor (Worthington) in 1:1 DMEM/F12.\nThe top 12 mls, which contained both single cells and aggregates of up to 10 cells, as assessed by inverted phase-ontrast microscopy, were placed in 2 ml aliquots in the wells of plastic culture plates (Corning, N.Y.) precoated with 1% agarose in DMEM:F12 (2 ml in each well of a 6-well plate; 1 ml in each well of a 24-well plate). Cell samples were digested with further incubation for 10 minutes in 0.05% trypsin and 0.53 mM EDTA (Gibco, BRL Gaithesburg, Md.) at 37° C. All cultures were plated at a final density of 1-3×10^4 cell, per well. For growth studies of monolayer cells, identical preparations were grown on the plastic surface of the culture plates. Both the monolayers and the cell suspensions were incubated at 37° C. in a moisture saturated incubator in 5% CO2 and air.\n(§1) I used the in vitro cyst formation system of the present invention to analyze compounds that affect the process of cyst formation. To determine the therapeutic effectiveness of an agent, cyst-forming cells are suspended in a medium to which the agent has been added. These cells are then cultured on a solid phase without formation of a layer of cells on the surface, such as in the assay system described in Example 1. The extent to which the cells actually form cysts can be detected and compared to the extent of cyst formation expected if no agent were added. If the amount of cyst formation is lower than expected, then the agent is a good candidate for therapeutic intervention of cystic diseases.\n(§2) The effects of various metabolic inhibitors on cyst formation were studied in cultures derived from day 21 postnatal CPK mice. […] Taxol (25 μM), a microtubule specific inhibitor, was from Calbiochem (La Jolla, Calif.). All other chemicals were obtained from Sigma Chemical Co. Cytosine arabinoside was added at the final concentration of 20 μg/ml to inhibit DNA synthesis; α-amanitin at 100 ng/ml to inhibit RNA synthesis; cycloheximide at 40 μg/ml to inhibit protein synthesis; amiloride at 1 mM to inhibit the renal epithelial Na^+ -H^+ exchange; ouabain at 0.5 mM to inhibit Na^+ -K^+ -ATPase; brefeldin-A at 10 μg/ml to inhibit transport of surface proteins; griseofulvin at 350 μM to inhibit microtubule function; colchicine at 10 μM to inhibit microtubule polymerization; and cytochalasin-B and cytochalasin-D at 10 μM to depolymerize actin filaments.\n(§3) In the presence of these metabolic inhibitors in vitro, cyst formation was noted to be either present or absent; if present, the diameters of 20 cysts from a 0.2 ml aliquot were measured. In the same samples, ^3 H-dThd incorporation was also measured as described above. […] After each wash, cell clusters were collected by centrifuging at 200×g for 1 minute and the supernatant discarded. Washed cell clusters were resuspended in the original volume of growth medium without inhibitors, placed in agarose coated wells and incubated at 37° C. in a moisture saturated incubator in 5% CO2 and air.\n(§4) In this table, the mean cyst size is reported as ±SD with a measurement of twenty cysts. The ^3 H-dThd incorporation is reported as ±SD using measurements of three wells. The * indicates […] versus control. […] The entries listed as \"NA\" in the table indicate data that is not available."}, "homozygous cpk mice [2]": {"system": "homozygous cpk mice", "test": "Survival of cpk mice on weekly griseofulvin (Example 9)", "type": "in vivo, mouse", "protocol": "Although the mechanism of its inhibitory activity is not presently understood, this antifungal agent is known to have a colchicine-like effect on mitosis.\nNine homozygous cpk mice, raised and identified as in Example 6 were treated with 25 μl of 24 mg/ml griseofulvin in DMSO through intraperitoneal injection beginning 10-12 days after birth. After the first treatment, the mice were administered with the same treatment once every week thereafter."}, "Murine CPK Cells [3]": {"system": "Murine CPK Cells", "test": "In vitro cyst formation and cyst size in suspension culture of murine CPK cells", "type": "cell-based, mouse", "details": "day 21, 24 h, final concentration per Table II (cytosine arabinoside 20 μg/ml, α-amanitin 100 ng/ml, cycloheximide 49 μg/ml, ouabain 1 mM, amiloride 1 mM, brefeldin-A 10 μg/ml, griseofulvin 350 μM, colchicine 10 μM, vinblastine 1 μM, nocodazole 30 μM, taxol 25 μM, cytochalasins 10 μM)"}, "homozygous cpk mice [4]": {"system": "homozygous cpk mice", "test": "Survival of cpk mice on weekly intraperitoneal treatment (Example 8, FIG. 2)", "type": "in vivo, mouse", "source_text": "Untreated and methotrexate (MTX) treated polycystic cpk mice all died before 30 days of age. Most polycystic cpk mice treated with weekly taxol survive more than 60 days. The dotted line starting at day 120 indicates the number and age of apparently healthy taxol treated polycystic mice that were sacrificed for histology studies. Pairs of mice were sacrificed at 120 days, 182 days and 210 days of age.\nIn order to determine whether taxol prevents cyst formation by inhibiting cell division, another drug known to have anti-mitotic activity, methotrexate, was tested for its ability to treat homozygous cpk mice. Six cpk mice were injected intraperitoneally with 15 μl of methotrexate solution (1.1 mg/ml in water) 10-12 days after birth and once every week thereafter. The methotrexate-injected mice survived until between 18 and 27 days after birth, with only one mouse living longer than 28 days. […] Therefore, the anti-mitotic activity of taxol cannot explain its ability to treat CPK mice having a polycystic-type kidney disease. Rather, the results from in vitro tests indicate that agents which interfere with the function of the cytoskeleton, or which inhibit the delivery of membrane proteins are useful in treating cystic diseases such as Polycystic Kidney Disease.\nEleven homozygous cpk mice, raised and identified as in Example 6 were treated with 15 μl of 10 mg/ml taxol in DMSO through intraperitoneal injection beginning 11-14 days after birth. Following the first treatment, the mice were administered with the same treatment once every week thereafter. As controls, 6 cpk mice were treated with 15 μl intraperitoneal injections of DMSO beginning 10-12 days after birth and then once every week thereafter."}, "Murine CPK Cells [5]": {"system": "Murine CPK Cells", "test": "3H-thymidine incorporation (DNA synthesis) in CPK cell suspension culture", "type": "cell-based, mouse", "details": "± SD, three wells; concentrations as in Table II; control 100 ± 11; 1440 min", "protocol": "Growth studies were performed on kidney cells derived from day 10, 21 and 28 postnatal CPK mice and their normal littermates. Immediately after cells were placed in suspension or monolayer culture, 3 μCi of ^3 H-thymidine (^3 H-dThd, specific activity 45 Ci/mmol, Amersham, Ill.) was placed in each well of the culture plate. DNA synthesis was assessed by incorporation of ^3 H-dThd over the 24 hours of culture, and trichloroacetic acid-insoluble. radioactivity was expressed as cpm/μg protein. Protein was assayed with the BCA reagent as described by the manufacturer (Pierce, Rockford, Ill.). At 24 hours of culture, an aliquot (0.2 ml) of the suspension was removed and the number of cysts counted using an inverted microscope. The number of cysts was expressed as a ratio factored for the total number of cells in the suspension at 24 hours of culture. Cyst diameter was measured at 100× using an eyepiece micrometer.\nas §2, §3, §4"}, "human ADPKD cells": {"system": "human ADPKD cells", "test": "In vitro cyst formation in human ADPKD cells", "type": "cell-based", "source_text": "I have substituted human ADPKD cells for the murine CPK cells of Example 1 and produced similar results. Other cyst-forming cells are believed to also form suitable results with only minor deviations from the conditions set forth in Example 1.\nCell suspensions were separated from debris by sedimentation at unit gravity and decantation. After washing once with DMEM/F12 medium, cells were suspended in DMEM/F12 supplemented with 1.2 gm/l sodium bicarbonate, 1× insulin, transferrin and selenium (Sigma # 11184), 1% lipids supplement (Sigma # L4646) and 1× antibiotic/antimycotic (Sigma # A7292) at a density of 5×10^4 cells per ml. Two mls of the cell suspension were aliquoted into each well of a six-well plastic cell culture plates that had been precoated with 2 mls of 1% low melting point agarose in DMEM/F12 and incubated at 37° C. in a humidified atmosphere of 5% CO2 in air.\nas §1"}, "Murine CPK Cells [6]": {"system": "Murine CPK Cells", "test": "Cell viability, trypan blue exclusion, CPK suspension culture", "details": "1.0 mM ouabain", "protocol": "as §2, with “[…];” for “ouabain at 0.5 mM to inhibit Na^+ -K^+ -ATPase;”"}, "neonatal CPK kidneys": {"system": "neonatal CPK kidneys", "details": "triiodothyronine pharmacological doses; ouabain 0.2 mM; cited from earlier work"}, "Na^+ K^+ -ATPase": {"system": "Na^+ K^+ -ATPase", "details": "triiodothyronine; ouabain 0.2 mM; cited from earlier work"}, "[7]": {"system": "normal and polycystic human kidney epithelial cells", "details": "embedded in type 1 collagen; cited from earlier work"}}, "note": "Where “and” joins values, the source holds several entries; their conditions need not be identical. Equal values may be shown once. Entries after “also recorded” stand apart in the source; their conditions may differ."}
{"molecule": "COC1=CC(=O)C[C@@H](C)[C@]12Oc1c(Cl)c(OC)cc(OC)c1C2=O", "note": "[Griseofulvin]", "values": [{"measurement": "Cyst Size", "setting": "Murine CPK Cells [1]", "value": 0, "unit": "μm"}, {"measurement": "cyst formation (in words)", "setting": "Murine CPK Cells [1]", "value": "inhibits the formation of cysts"}, {"measurement": "minimum average lifespan", "setting": "homozygous cpk mice [2]; 25 μl of 24 mg/ml griseofulvin in DMSO i.p. weekly from 10-12 days, untreated controls 33.5±6.3 days, preliminary", "value": "at least 49±15.8 days"}, {"measurement": "age of mice still alive", "setting": "homozygous cpk mice [2]; remaining three of nine mice, weekly griseofulvin i.p.", "value": "78 days of age and 54 days of age and 63 days of age"}, {"measurement": "age at death of individual mice", "setting": "homozygous cpk mice [2]; six of nine mice, weekly griseofulvin i.p.", "value": "31 days of age and 34 days of age and 35 days of age and 41 days of age and 45 days of age and 60 days of age"}, {"measurement": "Cyst Formation (+/-)", "setting": "Murine CPK Cells [3]", "value": "-"}]}
{"molecule": "CN(Cc1cnc2nc(N)nc(N)c2n1)c1ccc(C(=O)N[C@@H](CCC(=O)O)C(=O)O)cc1", "note": "[Methotrexate]", "values": [{"measurement": "survival, age", "setting": "homozygous cpk mice [4]; weekly i.p. treatment, DMSO mice survived 24-28 days, FIG. 2: all methotrexate, most taxol mice, b191: remaining six taxol mice > 120, two died < 30", "value": "< 30", "unit": "days"}, {"measurement": "survival (in words)", "setting": "homozygous cpk mice [4]; weekly i.p., versus untreated or DMSO", "value": "did not appear to survive substantially longer than untreated controls"}]}
{"molecule": "C[C@@H]1O[C@@H](O[C@H]2C[C@@H](O)[C@]3(CO)[C@H]4[C@H](O)C[C@]5(C)[C@@H](C6=CC(=O)OC6)CC[C@]5(O)[C@@H]4CC[C@]3(O)C2)[C@H](O)[C@H](O)[C@H]1O", "note": "[Ouabain]", "values": [{"measurement": "Cyst Size", "setting": "Murine CPK Cells [1]", "value": 0, "unit": "μm"}, {"measurement": "cyst formation (in words)", "setting": "Murine CPK Cells [1]", "value": "not to inhibit cyst formation in these cells; also recorded: cyst inhibiting activity was observed; also recorded: did not prevent the formation of CPK cysts"}, {"measurement": "^3 H-dThd Incorporation", "setting": "Murine CPK Cells [5]", "value": "104 ± 9", "unit": "% control"}, {"measurement": "cyst formation (in words)", "setting": "human ADPKD cells; human ADPKD cells, cytosine arabinoside 20 μg/ml, α-amanitin 100 ng/ml, cycloheximide 40 μg/ml, amiloride 1 mM, ouabain 0.5 mM, taxol 25 μM, colchicine 10 μM, vinblastine 1 μM, cytochalasins 10 μM", "value": "potent inhibitor of cyst formation; also recorded: completely block cyst formation; also recorded: cyst formation can be blocked"}, {"measurement": "time to lumen appearance after removing the inhibitor", "setting": "human ADPKD cells; human model", "value": "twenty-four"}, {"measurement": "reversibility of inhibition of cyst formation", "setting": "human ADPKD cells; human model, inhibitor removed", "value": "reversible"}, {"measurement": "cell death / reduction of cell viability (in words)", "setting": "Murine CPK Cells [6]", "value": "extensive cell death; also recorded: large scale reduction of cell viability"}, {"measurement": "Cyst Formation (+/-)", "setting": "Murine CPK Cells [3]", "value": "-"}, {"measurement": "proximal tubular cysts maintained / effect abolished", "setting": "neonatal CPK kidneys", "value": "abolished"}, {"measurement": "renal Na^+ K^+ -ATPase activity (in words)", "setting": "Na^+ K^+ -ATPase", "value": "decrease"}]}
{"molecule": "C=C[C@@]1(C)CC(=O)[C@]2(O)[C@@]3(C)[C@@H](O)CCC(C)(C)[C@@H]3[C@H](O)[C@H](OC(C)=O)[C@@]2(C)O1", "note": "[forskolin]", "values": [{"measurement": "induction of cysts", "setting": "[7]", "value": "can be induced to produce cysts"}]}
{"molecule": "N[C@@H](Cc1cc(I)c(Oc2ccc(O)c(I)c2)c(I)c1)C(=O)O", "note": "[triiodothyronine]", "values": [{"measurement": "proximal tubular cysts maintained / effect abolished", "setting": "neonatal CPK kidneys", "value": "can be maintained"}, {"measurement": "renal Na^+ K^+ -ATPase activity (in words)", "setting": "Na^+ K^+ -ATPase", "value": "increase"}]}
{"molecule": "epidermal growth factor: stimulates cyst formation of kidney epithelial cells in collagen", "values": [{"measurement": "induction of cysts", "setting": "[7]", "value": "can be induced to produce cysts"}]}
